# Assay results reported in publication PMC11892739, “Site-specific molecular glues for the 14-3-3/Tau pS214 protein–protein interaction via reversible covalent imine tethering” (RSC Medicinal Chemistry, 2025).
# Target: T1, 14-3-3/Pin1 complex (Homo sapiens, UniProt P63104)
# T1 construct: made in house; host or cells: NiCo21 (DE3) E. coli
# Assay: FA peptide screen, 14-3-3ζ titration to client peptide and compound: Pin1
# Assay type: binding
# Conditions: 250 μM compound
# Protocol: Since the hub protein 14-3-3 binds to hundreds of phosphoprotein partners, selectivity of PPI stabilization is a major challenge. The interplay of chemical reactivity, and the topology and functionality of the composite binding pocket shaped by 14-3-3 and Tau potentially provide entries towards selective stabilization. […] Here, 14-3-3ζ was titrated to a constant concentration of client peptide (100 nM) and compound (250 μM) to determine the SF250μM values for the particular 14-3-3 PPI. A variety of 14-3-3 binding proteins was represented in this client panel whereby the size and hydrophobicity of the +1 amino acid were varied. […]
# chromatography (HisTrap high performance cartridges, Cytiva). […]
# 0.1% (v/v) Tween20, 0.1% (w/v) BSA). […] Measurements were performed directly after plate preparation, using a Tecan SPARK plate reader at room temperature ( λex: 485±20 nm; λem: 535±25 nm; mirror: automatic; flashes: 30; settle time: 1 ms; gain: optimal; Z -position: calculated from well). […] All data were analyzed using GraphPad Prism (10.0.1) and fitted with a four -parameter logistic model (4PL) to determine binding affinities (dissociation constant, KD). […]
# Fluorescence Anisotropy – peptide screen […]
# T1 sequence (P63104 whole entry, other chains not shown): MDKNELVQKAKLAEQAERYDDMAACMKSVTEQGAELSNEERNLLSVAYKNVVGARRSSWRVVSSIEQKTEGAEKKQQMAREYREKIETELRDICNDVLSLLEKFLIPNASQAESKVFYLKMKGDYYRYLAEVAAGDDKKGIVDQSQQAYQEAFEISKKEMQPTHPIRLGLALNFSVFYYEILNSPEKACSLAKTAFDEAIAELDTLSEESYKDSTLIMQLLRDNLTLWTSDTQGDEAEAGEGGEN
compound,measurement,setting,value
CCc1ccc(-c2nccn2-c2ccc(C=O)c(Br)c2)cc1 [Compound 18],SF250μM for 14-3-3/Pin1 PPI stabilization,"100 nM Pin1 peptide, 14-3-3ζ titrated",3.9
same,stabilization of 14-3-3/Pin1 peptide (in words),"100 nM peptide, +1 Trp",no significant stabilization
